Reference: PMC7318034, “Safety, Pharmacokinetics, and Drug-Drug Interaction Potential of Intravenous Durlobactam, a β-Lactamase Inhibitor, in Healthy Subjects” (Antimicrobial Agents and Chemotherapy, 2020)
Where two headings read alike, the source gives them in different places.

Legend:
[1] = Part A single-ascending-dose plasma PK in healthy subjects; format: in vivo, human; conditions: for half-life / AUC(0-inf) / Cmax / clearance / Tmax / AUC(0-t) / Vd: human, plasma; for Tmax: median; for Vd: read-out: Vss
Experimental: (§1) This was a 4-part, double-blind, placebo-controlled study (15 cohorts) of DUR administered as a 3-h i.v. infusion (except for cohort 4, in which a 2-h i.v. infusion was evaluated) (see Table S5 in the supplemental material).
(§2) The blank control matrix was made up of human plasma (BioreclamationIVT) diluted 1:1 with SigmaFast (reconstituted protease inhibitor cocktail tablet [product S8820; Sigma-Aldrich, St. Louis, MO] in 10 ml of water) for preparation of calibration standards and QC samples. […] A 100-μl aliquot of the supernatant was transferred to 96-well plates. Samples were diluted further with 400 μl of water, and 5 μl of sample was injected into the LC-MS/MS system for analysis. […] The LLOQ for all analytes was 5 ng/ml.
(§3) AUC was calculated using the log-linear trapezoidal rule.
(§4) Pharmacokinetic parameters were summarized at each assessment time point using the mean ± standard deviation (SD), the percent coefficient of variation (CV), median, minimum, and maximum. Single-ascending-dose study data were assessed for dose proportionality using Cmax and AUC, and accumulation ratios was determined using repeat-dose cohorts. […] Noncompartmental analysis of PK parameters was performed using Phoenix WinNonlin (v6.4) software to determine PK parameters.

[2] = Part B multiple-ascending-dose plasma PK in healthy subjects; format: in vivo, human; conditions: for Cmax / Tmax / AUC / clearance / half-life / Vd: human, plasma, iv; for AUC: read-out: AUC0–tau; for Vd: read-out: Vss
Experimental: as §1, §2, §3, §4

clinical = conditions: human, in vivo
Experimental: as §2, §3, §4

[3] = Protein binding in human plasma; format: in vitro ADME
[4] = cohort of elderly subjects, DUR 1 g
[5] = iv, 0.25 g, part A cohort 1, single 0.25 g, 3-h i.v. infusion
[6] = iv, 0.5 g, part A cohort 2, single 0.5 g, 3-h i.v. infusion
[7] = iv, 1 g, part A cohort 3, single 1.0 g, 3-h i.v. infusion
[8] = iv, 1 g, part A cohort 4, single 1.0 g, 2-h i.v. infusion
[9] = iv, 1 g, part A cohort 8 (elderly subjects >65 years), single 1.0 g, 3-h i.v. infusion
[10] = iv, 2 g, part A cohort 5, single 2.0 g, 3-h i.v. infusion
[11] = iv, 4 g, part A cohort 6, single 4.0 g, 3-h i.v. infusion
[12] = iv, 8 g, part A cohort 7, single 8.0 g, 3-h i.v. infusion
[13] = 0.25 g, part B cohort 9, 0.25 g q6h 3-h i.v. infusion, day 1
[14] = 0.25 g, part B cohort 9, 0.25 g q6h 3-h i.v. infusion, day 8
[15] = 0.5 g, part B cohort 10 (4 subjects), 0.5 g q6h 3-h i.v. infusion, day 1
[16] = 0.5 g, part B cohort 10 (4 subjects), 0.5 g q6h 3-h i.v. infusion, day 8
[17] = 1 g, part B cohort 11 (5 subjects), 1.0 g q6h 3-h i.v. infusion, day 1
[18] = 1 g, part B cohort 11 (5 subjects), 1.0 g q6h 3-h i.v. infusion, day 8
[19] = 2 g, part B cohort 12, 2.0 g q6h 3-h i.v. infusion, day 1
[20] = 2 g, part B cohort 12, 2.0 g q6h 3-h i.v. infusion, day 8
[21] = part B cohort 9, 0.25 g q6h 3-h i.v. infusion, day 8
[22] = part B cohort 10 (4 subjects), 0.5 g q6h 3-h i.v. infusion, day 8
[23] = part B cohort 11 (5 subjects), 1.0 g q6h 3-h i.v. infusion, day 8
[24] = part B cohort 12, 2.0 g q6h 3-h i.v. infusion, day 8

increase in Cmax with 2-h infusion compared with 3-h infusion ([1]; cohort 4, DUR 1 g): approximately 50% | increase in AUC in elderly subjects compared with younger subjects ([1]; cohort 8, DUR 1 g): 2 fold | increase in Cmax in elderly subjects compared with younger subjects ([1]; cohort 8, DUR 1 g): 1.8 fold | increase in exposure in elderly subjects [1, 4]: 100% | reduction of renal clearance in elderly subjects [1, 4]: approximately 50% | reduction of volume of distribution (V) in elderly subjects [1, 4]: approximately 50% | half-life ([1]; intravenous, range across single doses of 0.25 g to 8 g, read-out: mean half-life (t1/2)): 1.5 to 2.8 h | AUC(0-inf) [1, 5]: 25.5 ± 3.7 µg·h/mL | Cmax [1, 5]: 6900 ± 1000 ng/mL | clearance [1, 5]: 167 mL/min | half-life ([1]; iv, 0.25 g, part A cohort 1, single 0.25 g, 3-h i.v. infusion, mean ± SD, n=6, read-out: t1/2 (converted)): 1.5 ± 0.1 h | Tmax [1, 5]: 3 h | AUC(0-t) ([1]; iv, 0.25 g, part A cohort 1, single 0.25 g, 3-h i.v. infusion, read-out: AUC0–24): 25.5 ± 3.7 µg·h/mL | AUC(0-t) ([1]; iv, 0.25 g, part A cohort 1, single 0.25 g, 3-h i.v. infusion, read-out: AUC0–t): 25.4 ± 3.7 µg·h/mL | Vd [1, 5]: 16.6 ± 3.6 L | AUC(0-inf) [1, 6]: 47.8 ± 7.6 µg·h/mL | Cmax [1, 6]: 9900 ± 2000 ng/mL | clearance [1, 6]: 178 mL/min | half-life ([1]; iv, 0.5 g, part A cohort 2, single 0.5 g, 3-h i.v. infusion, mean ± SD, n=6, read-out: t1/2 (converted)): 2 ± 0.4 h | Tmax [1, 6]: 3 h | AUC(0-t) ([1]; iv, 0.5 g, part A cohort 2, single 0.5 g, 3-h i.v. infusion, read-out: AUC0–24): 47.7 ± 7.5 µg·h/mL | AUC(0-t) ([1]; iv, 0.5 g, part A cohort 2, single 0.5 g, 3-h i.v. infusion, read-out: AUC0–t): 47.4 ± 7.7 µg·h/mL | Vd [1, 6]: 25.8 ± 2.9 L | AUC(0-inf) [1, 7]: 76.1 ± 10.5 µg·h/mL | Cmax [1, 7]: 20700 ± 2800 ng/mL | clearance [1, 7]: 223 mL/min | half-life ([1]; iv, 1 g, part A cohort 3, single 1.0 g, 3-h i.v. infusion, mean ± SD, n=6, read-out: t1/2 (converted)): 2 ± 0.3 h | Tmax [1, 7]: 3 h | AUC(0-t) ([1]; iv, 1 g, part A cohort 3, single 1.0 g, 3-h i.v. infusion, read-out: AUC0–24): 76.1 ± 10.5 µg·h/mL | AUC(0-t) ([1]; iv, 1 g, part A cohort 3, single 1.0 g, 3-h i.v. infusion, read-out: AUC0–t): 75.6 ± 10.4 µg·h/mL | Vd [1, 7]: 25.7 ± 5 L | AUC(0-inf) [1, 8]: 101 ± 28.9 µg·h/mL | Cmax [1, 8]: 31300 ± 6900 ng/mL | clearance [1, 8]: 177 mL/min | half-life ([1]; iv, 1 g, part A cohort 4, single 1.0 g, 2-h i.v. infusion, mean ± SD, n=6, read-out: t1/2 (converted)): 2.2 ± 0.2 h | Tmax [1, 8]: 2 h | AUC(0-t) ([1]; iv, 1 g, part A cohort 4, single 1.0 g, 2-h i.v. infusion, read-out: AUC0–24): 101 ± 28.9 µg·h/mL | AUC(0-t) ([1]; iv, 1 g, part A cohort 4, single 1.0 g, 2-h i.v. infusion, read-out: AUC0–t): 101 ± 29 µg·h/mL | Vd [1, 8]: 22.7 ± 6.4 L | AUC(0-inf) [1, 9]: 151 ± 14.1 µg·h/mL | Cmax [1, 9]: 37800 ± 2500 ng/mL | clearance [1, 9]: 112 mL/min | half-life ([1]; iv, 1 g, part A cohort 8 (elderly subjects >65 years), single 1.0 g, 3-h i.v. infusion, mean ± SD, n=6, read-out: t1/2 (converted)): 2.4 ± 0.3 h | Tmax [1, 9]: 3 h | AUC(0-t) ([1]; iv, 1 g, part A cohort 8 (elderly subjects >65 years), single 1.0 g, 3-h i.v. infusion, read-out: AUC0–24): 151 ± 14 µg·h/mL | AUC(0-t) ([1]; iv, 1 g, part A cohort 8 (elderly subjects >65 years), single 1.0 g, 3-h i.v. infusion, read-out: AUC0–t): 151 ± 14 µg·h/mL | Vd [1, 9]: 14.5 ± 2 L | AUC(0-inf) [1, 10]: 173 ± 25.6 µg·h/mL | Cmax [1, 10]: 41500 ± 6400 ng/mL | clearance [1, 10]: 197 mL/min | half-life ([1]; iv, 2 g, part A cohort 5, single 2.0 g, 3-h i.v. infusion, mean ± SD, n=6, read-out: t1/2 (converted)): 2.2 ± 0.2 h | Tmax [1, 10]: 2.5 h | AUC(0-t) ([1]; iv, 2 g, part A cohort 5, single 2.0 g, 3-h i.v. infusion, read-out: AUC0–24): 173 ± 25.6 µg·h/mL | AUC(0-t) ([1]; iv, 2 g, part A cohort 5, single 2.0 g, 3-h i.v. infusion, read-out: AUC0–t): 173 ± 25.6 µg·h/mL | Vd [1, 10]: 24.3 ± 3.2 L | AUC(0-inf) [1, 11]: 368 ± 55.9 µg·h/mL | Cmax [1, 11]: 96200 ± 13600 ng/mL | clearance [1, 11]: 185 mL/min | half-life ([1]; iv, 4 g, part A cohort 6, single 4.0 g, 3-h i.v. infusion, mean ± SD, n=6, read-out: t1/2 (converted)): 2.7 ± 0.6 h | Tmax [1, 11]: 3 h | AUC(0-t) ([1]; iv, 4 g, part A cohort 6, single 4.0 g, 3-h i.v. infusion, read-out: AUC0–24): 367 ± 55.1 µg·h/mL | AUC(0-t) ([1]; iv, 4 g, part A cohort 6, single 4.0 g, 3-h i.v. infusion, read-out: AUC0–t): 368 ± 55 µg·h/mL | Vd [1, 11]: 22.4 ± 3.6 L | AUC(0-inf) [1, 12]: 732 ± 163 µg·h/mL | Cmax [1, 12]: 176000 ± 29000 ng/mL | clearance [1, 12]: 190 mL/min | half-life ([1]; iv, 8 g, part A cohort 7, single 8.0 g, 3-h i.v. infusion, mean ± SD, n=6, read-out: t1/2 (converted)): 2.8 ± 0.4 h | Tmax [1, 12]: 3 h | AUC(0-t) ([1]; iv, 8 g, part A cohort 7, single 8.0 g, 3-h i.v. infusion, read-out: AUC0–24): 730 ± 164 µg·h/mL | AUC(0-t) ([1]; iv, 8 g, part A cohort 7, single 8.0 g, 3-h i.v. infusion, read-out: AUC0–t): 731 ± 163 µg·h/mL | Vd [1, 12]: 28.1 ± 9.5 L | Cmax [2, 13]: 6900 ± 1400 ng/mL | Tmax ([2]; 0.25 g, part B cohort 9, 0.25 g q6h 3-h i.v. infusion, day 1, median): 3 h | AUC [2, 13]: 23.1 ± 4.9 µg·h/mL | Cmax [2, 14]: 7500 ± 1300 ng/mL | Tmax ([2]; 0.25 g, part B cohort 9, 0.25 g q6h 3-h i.v. infusion, day 8, median): 2.5 h | AUC [2, 14]: 26.2 ± 5.2 µg·h/mL | Cmax [2, 15]: 14900 ± 2200 ng/mL | Tmax ([2]; 0.5 g, part B cohort 10 (4 subjects), 0.5 g q6h 3-h i.v. infusion, day 1, median): 3 h | AUC [2, 15]: 50.3 ± 9 µg·h/mL | Cmax [2, 16]: 14800 ± 1100 ng/mL | Tmax ([2]; 0.5 g, part B cohort 10 (4 subjects), 0.5 g q6h 3-h i.v. infusion, day 8, median): 3 h | AUC [2, 16]: 53.4 ± 4.8 µg·h/mL | Cmax [2, 17]: 26900 ± 13100 ng/mL | Tmax ([2]; 1 g, part B cohort 11 (5 subjects), 1.0 g q6h 3-h i.v. infusion, day 1, median): 2.5 h | AUC [2, 17]: 79.8 ± 35.9 µg·h/mL | Cmax [2, 18]: 33400 ± 6000 ng/mL | Tmax ([2]; 1 g, part B cohort 11 (5 subjects), 1.0 g q6h 3-h i.v. infusion, day 8, median): 3 h | AUC [2, 18]: 109 ± 13.9 µg·h/mL | Cmax [2, 19]: 51900 ± 8000 ng/mL | Tmax ([2]; 2 g, part B cohort 12, 2.0 g q6h 3-h i.v. infusion, day 1, median): 3 h | AUC [2, 19]: 179 ± 29.9 µg·h/mL | Cmax [2, 20]: 53300 ± 7800 ng/mL | Tmax ([2]; 2 g, part B cohort 12, 2.0 g q6h 3-h i.v. infusion, day 8, median): 3 h | AUC [2, 20]: 193 ± 31.2 µg·h/mL | clearance [2, 21]: 163 mL/min | half-life [2, 21]: 1.9 ± 0.4 h | Vd [2, 21]: 18.5 ± 2.9 L | clearance [2, 22]: 157 mL/min | half-life [2, 22]: 2.6 ± 0.1 h | Vd [2, 22]: 18.1 ± 1.8 L | clearance [2, 23]: 155 mL/min | half-life [2, 23]: 3.5 ± 0.9 h | Vd [2, 23]: 17.2 ± 2 L | clearance [2, 24]: 177 mL/min | half-life [2, 24]: 10.1 ± 2.9 h | Vd [2, 24]: 21.8 ± 2 L | Accum. index [2, 21]: 1.1 ± 0.07 | Accum. index [2, 22]: 1.3 ± 0.01 | Accum. index [2, 23]: 1.5 ± 0.18 | Accum. index [2, 24]: 3.0 ± 0.69 | AUC0–24 (clinical): 104.4 ± 6.6 µg·h/mL | CL (clinical): 9.6 ± 0.6 L/h | Cmax (clinical): 26900 ± 3600 ng/mL | Vss (clinical): 17.6 ± 2.0 L | AUC(0-t) (clinical; AUC0–24): 106 ± 31.5 µg·h/mL | clearance (clinical; CL): 165 mL/min | Cmax (clinical; Cmax): 30000 ± 9200 ng/mL | Vd (clinical; Vss): 15.9 ± 2.6 L | half-life (clinical; t1/2): 1.8 ± 0.4 h | fraction unbound [3]: 0.1
Compound: CC1=C[C@@H]2CN(C(=O)N2OS(=O)(=O)O)[C@@H]1C(N)=O [DUR, Durlobactam]
